Measurements taken from ChEMBL document CHEMBL1201862, “PubChem BioAssay data set” (2004).
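Exposure lasted 48 hours, with cells grown in 96-well plates and compounds tested at five concentrations. At the GI50, growth is halved.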 The source made the active and inactive calls. No stated cut-off is given here; in the data, active = GI50 up to about 1.1 µM and inactive = higher.

Experiments:
Assay in all cases: NCI anticancer screen, dose series, 48 h
[1] = system: CAKI-1
[2] = system: T47D
[3] = system: DU-145
[4] = system: SK-MEL-2
[5] = system: IGROV-1
[6] = system: NCI-H23
[7] = system: Malme-3M
[8] = system: RPMI-8226
[9] = system: NCI-H522
[10] = system: HOP-62
[11] = system: SF-295
[12] = system: SK-OV-3
[13] = system: HCC 2998
[14] = system: UACC-257
[15] = system: OVCAR-4
[16] = system: MOLT-4
[17] = system: MDA-MB-435
[18] = system: RXF 393
[19] = system: U-251
[20] = system: CCRF-CEM

Compound: COc1ccc(CN2C(=O)CCC/C=C\[C@H]2CI)cc1
- GI50 [1]: 10.3 µM (inactive)
- GI50 [2]: 0.286 µM (active)
- GI50 [3]: 13.3 µM (inactive)
- GI50 [4]: 11 µM (inactive)
- GI50 [5]: 15.6 µM (inactive)
- GI50 [6]: 15.1 µM (inactive)
- GI50 [7]: 11.1 µM (inactive)
- GI50 [8]: 6.97 µM (inactive)
- GI50 [9]: 12.7 µM (inactive)
- GI50 [10]: 16 µM (inactive)
- GI50 [11]: 13.5 µM (inactive)
- GI50 [12]: 16 µM (inactive)
- GI50 [13]: 11.6 µM (inactive)
- GI50 [14]: 10.1 µM (inactive)
- GI50 [15]: 10.9 µM (inactive)
- GI50 [16]: 10.1 µM (inactive)
- GI50 [17]: 12.7 µM (inactive)
- GI50 [18]: 3.32 µM (inactive)
- GI50 [19]: 13.6 µM (inactive)

Compound: CCN(CC)CCNc1ccc2ncn3c4c(OC)ccc(OC)c4c(=O)c1c23
- GI50 [1]: 86.5 µM (inactive)
- GI50 [2]: > 100 µM (inactive)
- GI50 [3]: 12.9 µM (inactive)
- GI50 [5]: > 10 µM (inactive)
- GI50 [6]: 22.6 µM (inactive)
- GI50 [7]: 23.8 µM (inactive)
- GI50 [9]: 15.7 µM (inactive)
- GI50 [10]: > 100 µM (inactive)
- GI50 [11]: 13.3 µM (inactive)
- GI50 [12]: 19.1 µM (inactive)
- GI50 [20]: 1.22 µM (inactive)
- GI50 [13]: 15.3 µM (inactive)
- GI50 [14]: > 100 µM (inactive)
- GI50 [15]: 6.11 µM (inactive)
- GI50 [16]: 1.45 µM (inactive)
- GI50 [17]: > 10 µM (inactive)
- GI50 [18]: 1.71 µM (inactive)
- GI50 [19]: 15.5 µM (inactive)

Compound: CC(=O)Oc1ccc2c(c1)O/C(=C\c1ccc(O)cc1)C2=O
- GI50 [1]: > 100 µM (inactive)
- GI50 [2]: > 100 µM (inactive)
- GI50 [3]: > 100 µM (inactive)
- GI50 [5]: > 100 µM (inactive)
- GI50 [6]: > 100 µM (inactive)
- GI50 [8]: > 100 µM (inactive)
- GI50 [9]: 28.4 µM (inactive)
- GI50 [10]: > 100 µM (inactive)
- GI50 [11]: > 100 µM (inactive)
- GI50 [12]: > 100 µM (inactive)
- GI50 [20]: > 100 µM (inactive)
- GI50 [13]: > 100 µM (inactive)
- GI50 [14]: > 100 µM (inactive)
- GI50 [15]: > 100 µM (inactive)
- GI50 [16]: > 100 µM (inactive)
- GI50 [17]: > 100 µM (inactive)
- GI50 [18]: > 100 µM (inactive)
- GI50 [19]: > 100 µM (inactive)

Compound: O=C(Cc1ccccc1)NCCCN(CCCCN(CCCNC(=O)Cc1ccccc1)C(=O)OCc1ccccc1)C(=O)OCc1ccccc1
- GI50 [1]: 4.74 µM (inactive)
- GI50 [2]: > 36.4 µM (inactive)
- GI50 [3]: > 100 µM (inactive)
- GI50 [4]: > 100 µM (inactive)
- GI50 [5]: > 100 µM (inactive)
- GI50 [6]: > 100 µM (inactive)
- GI50 [8]: 4.19 µM (inactive)
- GI50 [9]: 1.42 µM (inactive)
- GI50 [10]: > 100 µM (inactive)
- GI50 [11]: > 100 µM (inactive)
- GI50 [12]: > 100 µM (inactive)
- GI50 [20]: > 20.3 µM (inactive)
- GI50 [13]: > 38.1 µM (inactive)
- GI50 [14]: > 100 µM (inactive)
- GI50 [16]: 4.49 µM (inactive)
- GI50 [17]: > 100 µM (inactive)
- GI50 [18]: > 31.4 µM (inactive)
- GI50 [19]: > 100 µM (inactive)

Compound: COc1ccc(C2c3cc4c(cc3OC(NNS(=O)(=O)c3ccc(C)cc3)C2C)OCO4)cc1 (stereo not given)
- GI50 [1]: 65.9 µM (inactive)
- GI50 [2]: 54.2 µM (inactive)
- GI50 [3]: > 100 µM (inactive)
- GI50 [4]: 59.7 µM (inactive)
- GI50 [5]: 57.1 µM (inactive)
- GI50 [6]: 99.8 µM (inactive)
- GI50 [7]: > 100 µM (inactive)
- GI50 [8]: 12.5 µM (inactive)
- GI50 [9]: 11.8 µM (inactive)
- GI50 [10]: > 100 µM (inactive)
- GI50 [11]: 21.9 µM (inactive)
- GI50 [12]: > 100 µM (inactive)
- GI50 [20]: 11.1 µM (inactive)
- GI50 [13]: > 100 µM (inactive)
- GI50 [14]: 52.6 µM (inactive)
- GI50 [16]: 13.1 µM (inactive)
- GI50 [17]: 54.6 µM (inactive)
- GI50 [18]: 38.6 µM (inactive)
- GI50 [19]: 83.4 µM (inactive)

Compound: CC(C)(C)CN1[C@@H]2CCCC[C@H]2N(CC(C)(C)C)P1(=O)Cc1ccccc1
- GI50 [1]: 12.7 µM (inactive)
- GI50 [2]: 10.1 µM (inactive)
- GI50 [3]: 15.6 µM (inactive)
- GI50 [4]: 16.1 µM (inactive)
- GI50 [5]: 11 µM (inactive)
- GI50 [6]: 13 µM (inactive)
- GI50 [7]: 13.5 µM (inactive)
- GI50 [9]: 7.48 µM (inactive)
- GI50 [10]: 16.4 µM (inactive)
- GI50 [11]: 10.4 µM (inactive)
- GI50 [12]: 15.1 µM (inactive)
- GI50 [20]: 11 µM (inactive)
- GI50 [13]: 9.14 µM (inactive)
- GI50 [14]: 12.8 µM (inactive)
- GI50 [15]: 10.4 µM (inactive)
- GI50 [16]: 11.5 µM (inactive)
- GI50 [17]: 16.2 µM (inactive)
- GI50 [18]: 10.8 µM (inactive)
- GI50 [19]: 13.4 µM (inactive)

Compound: CC1=NN(c2nc(N)nc(CF)n2)C(C)(C)C1
- GI50 [1]: > 100 µM (inactive)
- GI50 [2]: > 100 µM (inactive)
- GI50 [3]: > 100 µM (inactive)
- GI50 [4]: > 100 µM (inactive)
- GI50 [5]: > 100 µM (inactive)
- GI50 [6]: > 100 µM (inactive)
- GI50 [8]: > 100 µM (inactive)
- GI50 [10]: > 100 µM (inactive)
- GI50 [11]: > 100 µM (inactive)
- GI50 [12]: > 100 µM (inactive)
- GI50 [20]: > 100 µM (inactive)
- GI50 [13]: > 100 µM (inactive)
- GI50 [14]: > 100 µM (inactive)
- GI50 [15]: > 100 µM (inactive)
- GI50 [16]: > 100 µM (inactive)
- GI50 [17]: > 100 µM (inactive)
- GI50 [18]: > 100 µM (inactive)
- GI50 [19]: > 100 µM (inactive)

Compound: CCOc1ccc(/C=C2/C(=O)N/C(=N\C(C)=O)N2C)cc1
- GI50 [1]: > 100 µM (inactive)
- GI50 [2]: > 100 µM (inactive)
- GI50 [3]: > 100 µM (inactive)
- GI50 [4]: > 100 µM (inactive)
- GI50 [5]: > 100 µM (inactive)
- GI50 [6]: > 100 µM (inactive)
- GI50 [10]: 96.6 µM (inactive)
- GI50 [11]: > 100 µM (inactive)
- GI50 [12]: > 100 µM (inactive)
- GI50 [13]: > 100 µM (inactive)
- GI50 [14]: > 100 µM (inactive)
- GI50 [15]: > 100 µM (inactive)
- GI50 [16]: 39.6 µM (inactive)
- GI50 [17]: > 100 µM (inactive)
- GI50 [18]: > 100 µM (inactive)
- GI50 [19]: > 100 µM (inactive)
